One may read the inhibition as the relative decrease from the control value, in per cent.

This note sets out measurements from patent EP3991729A1, “USE OF AMLEXANOX IN PREPARING ANTI-HEPATITIS VIRUS DRUG” (Marine Biomedical Research Institute Of Qingdao Co., Ltd., priority 2019, dated 2020).

For one data set, the system named is 293 cells. Put plainly: Cytotoxicity test, MTT assay. Particulars: Homo sapiens, HEK293; 1 µM, 72h. It is filed as cell-based. On the procedure:
(§1) […]. Various cells in the logarithmic growth phase were seeded in 96-well plates at 6,000 cells/well and cultured for 24h. […]. The dosage of DMSO in the solvent control group was based on the maximum dose of 0.1% used in the test group, with four duplicate wells for each concentration. Cells were treated with the drug for 72h and then added with 20µL 5 mg/mL MTT, cultured at 37°C for 4h, after added 100 µ L triple solution (10% SDS, 5% isobutanol, 12 mM hydrochloric acid), 96-well cell culture plate was placed in an incubator containing 5% CO2 at 37 ± 1°C overnight. OD value at 570nm was measured on a microplate reader.
(§2) The inhibition rate of tumor cell growth was calculated according to the following formula: Inhibition rate(%) = [(OD570controlwell−OD570dosewell)/OD570controlwell] × 100. [formula]
In general terms: Tetrazolium assays rely on reduction of a dye to a coloured formazan, in cell work by metabolically active cells.

The test system of another data set is A549 cells. Put plainly: Cytotoxicity test, MTT assay. It is filed as cell-based. The note with it: Homo sapiens, A549; 1 µM, 72h. On the procedure:
as §1, §2

A further data set has as its system HCT-116 cells. Put plainly: Cytotoxicity test, MTT assay. In kind it is cell-based. Particulars: Homo sapiens, HCT-116; 1 µM, 72h. On the procedure: as §1, §2
For another data set, the system named is Hela cells. Put plainly: Cytotoxicity test, MTT assay. The note with it: Homo sapiens, 1 µM, 72h, read-out: Inhibition (%) Hel a. It is filed as cell-based. On the procedure:
as §1, §2

For the next data set, the system named is HepG2 cells. Put plainly: Cytotoxicity test, MTT assay. It is filed as cell-based. The note with it: Homo sapiens, HepG2; 1 µM, 72h; read-out: Inhibition (%) Hep G2. On the procedure:
as §1, §2

The test system of the next data set is Huh7 cells. Nature of the data set: Cytotoxicity test, MTT assay. Particulars: Homo sapiens, Huh-7; 1 µM, 72h; read-out: Inhibition (%) Hu h7. In kind it is cell-based. How it is done:
as §1, §2

The subject of the next data set is MCF7 cells. Put plainly: Cytotoxicity test, MTT assay. In kind it is cell-based. Particulars: Homo sapiens, MCF7; 1 µM, 72h; read-out: Inhibition (%) MC F7. On the procedure: as §1, §2
The test system of another data set is MKN45 cells. Put plainly: Cytotoxicity test, MTT assay. The note with it: Homo sapiens, MKN-45; 1 µM, 72h. It is filed as cell-based. How it is done: as §1, §2
For a further data set, the system named is B and T cells. Nature of the data set: Immune cells in blood of HBV-infected mice, flow cytometry. Particulars: 530 mg/kg/day, once a day, oral gavage, day 9, Figure 19. In general terms: In flow cytometry, cells or beads pass a laser one at a time.

Structures are written as SMILES. Structures can show the parent of a compound that is named as a salt.

Method for B and T cells: Six-week-old male C57 mice were rapidly injected with 10µg/mouse of viral genomic DNA (genotype A) by tail vein injection in a short period. Viral infection was established using a venous hypertension model and randomly divided into groups. […] At the same time, a blank control was set up, and oral administration in uninfected mice was equivalent to the model group.
On day 9, mice were sacrificed to collect blood stained with flow antibody after fission red. All cells were treated with anti-FcγRIII/ II (purchased from BD Biosciences) in PBS for 30 min. CD3e-FITC (purchased from BD Biosciences). CD4-PE, CD8a-APC-Vio770, and CD34-FITC (GE). CD19-APC, CD11b-PE-Cyanine7, and CD117-efflor 450 (purchased from eBioscience). After staining, the samples were suspended using 500µL PBS and analyzed by BD Aria III flow cytometer.

Consider `COc1cccc2c1C(=O)c1c(O)c3c(c(O)c1C2=O)C[C@@](O)(C(=O)CO)C[C@@H]3O[C@H]1C[C@H](N)[C@H](O)[C@H](C)O1` [Adriamyci n Hydrochloride, doxorubicin hydrochloride], for which the inhibition at 1 µM with 293 cells was found to be 57.9%; in the data set with A549 cells it was 85.8%; with HCT-116 cells it was 71.9%; with Hela cells, 48.8%; in the data set on HepG2 cells, 92.1%; with Huh7 cells it was 76.9%. For the same molecule, the values for the inhibition at 1 µM with MCF7 cells and in the data set on MKN45 cells were 88% and 39.4%, respectively.
With `Nc1ccn([C@@H]2CS[C@H](CO)O2)c(=O)n1` [lamivudine], in the data set on B and T cells, the “effect on immune cells in blood” value is “had some inhibitory effects on immune cells”.
